Laboratory results from ChEMBL document CHEMBL1201862, “PubChem BioAssay data set” (2004).
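Compound exposure: 48 hours, 5 concentrations, 96-well plates. GI50 marks 50% less growth.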 Active and inactive are the calls of the source. No stated cut-off is given here; in the data, active = GI50 up to about 1.1 µM and inactive = higher.

What was measured:
Experiment in all cases: NCI-60 cell line screen, 48 h
NCI-H23 = system: NCI-H23
HCT-15 = system: HCT-15
COLO 205 = system: COLO 205
TK-10 = system: TK-10
SNB-19 = system: SNB-19
SW-620 = system: SW-620
CCRF-CEM = system: CCRF-CEM
MCF7 = system: MCF7
RXF 393 = system: RXF 393
SNB-75 = system: SNB-75
OVCAR-8 = system: OVCAR-8
KM12 = system: KM12
RPMI-8226 = system: RPMI-8226
BT-549 = system: BT-549
UO-31 = system: UO-31
SN12C = system: SN12C
NCI/ADR-RES = system: NCI/ADR-RES
ACHN = system: ACHN
SK-MEL-2 = system: SK-MEL-2

Compound	GI50 (NCI-H23)	GI50 (HCT-15) [µM]	GI50 (COLO 205)	GI50 (TK-10)	GI50 (SNB-19)	GI50 (SW-620)	GI50 (CCRF-CEM)	GI50 (MCF7)	GI50 (RXF 393)	GI50 (SNB-75)	GI50 (OVCAR-8)	GI50 (KM12)	GI50 (RPMI-8226)	GI50 (BT-549)	GI50 (UO-31)	GI50 (SN12C)	GI50 (NCI/ADR-RES)	GI50 (ACHN)	GI50 (SK-MEL-2)
O=C1CSC(c2ccccc2O)N1c1ccc(-c2ccc(-n3c(-c4ccccc4)nc4ccccc4c3=O)cc2)cc1 (configuration not stated)	43.9 µM (inactive)	33.7	21.6 µM (inactive)	16.1 µM (inactive)	50.6 µM (inactive)	22.8 µM (inactive)	26.4 µM (inactive)	28.1 µM (inactive)	35.1 µM (inactive)	24.9 µM (inactive)	24.3 µM (inactive)	13.9 µM (inactive)	33.6 µM (inactive)	13.7 µM (inactive)	20.7 µM (inactive)	74 µM (inactive)	30.1 µM (inactive)	–	–
CC(C)SC(=S)Sc1c(Cl)c(Cl)nc(Cl)c1Cl	12.3 µM (inactive)	2.97	8.55 µM (inactive)	5.97 µM (inactive)	7.55 µM (inactive)	2.88 µM (inactive)	1.91 µM (inactive)	4.06 µM (inactive)	4.57 µM (inactive)	–	3.46 µM (inactive)	8.24 µM (inactive)	1.75 µM (inactive)	15.3 µM (inactive)	8 µM (inactive)	13 µM (inactive)	20.3 µM (inactive)	6.98 µM (inactive)	7.82 µM (inactive)
CC(C)(C)OC(=O)[C@@H]1CCC(=O)N1C1(c2ccccc2)c2ccccc2-c2ccccc21	62.4 µM (inactive)	55.5	21.4 µM (inactive)	> 100 µM (inactive)	> 100 µM (inactive)	30.5 µM (inactive)	23.8 µM (inactive)	67.6 µM (inactive)	9.77 µM (inactive)	25.9 µM (inactive)	88.1 µM (inactive)	43.3 µM (inactive)	–	> 100 µM (inactive)	67.3 µM (inactive)	39.3 µM (inactive)	> 100 µM (inactive)	26.9 µM (inactive)	26.2 µM (inactive)
Nc1ncnc2c1cnn2COCC(O)CO (configuration not stated)	> 100 µM (inactive)	> 100	> 100 µM (inactive)	> 100 µM (inactive)	> 100 µM (inactive)	> 100 µM (inactive)	> 100 µM (inactive)	> 100 µM (inactive)	> 100 µM (inactive)	–	> 100 µM (inactive)	> 100 µM (inactive)	> 100 µM (inactive)	> 100 µM (inactive)	> 100 µM (inactive)	> 100 µM (inactive)	> 100 µM (inactive)	> 100 µM (inactive)	> 100 µM (inactive)
CCOC(=O)/C(=C\NC(C)(C)CO)c1nc2ccccc2[nH]1	67.8 µM (inactive)	81.7	58.9 µM (inactive)	63.8 µM (inactive)	> 100 µM (inactive)	> 100 µM (inactive)	35.6 µM (inactive)	86.3 µM (inactive)	> 100 µM (inactive)	> 100 µM (inactive)	74.8 µM (inactive)	75 µM (inactive)	30.8 µM (inactive)	> 100 µM (inactive)	0.426 µM (active)	> 100 µM (inactive)	79.6 µM (inactive)	27.2 µM (inactive)	–
COc1ccc(/N=N/C(=N\c2ccc(F)cc2)c2ccc(N(CCC#N)CCC#N)cc2)cc1	17.4 µM (inactive)	54	39.2 µM (inactive)	46.5 µM (inactive)	31.9 µM (inactive)	41.6 µM (inactive)	36.1 µM (inactive)	28.4 µM (inactive)	15.4 µM (inactive)	24 µM (inactive)	33.5 µM (inactive)	16.9 µM (inactive)	39.2 µM (inactive)	17.5 µM (inactive)	68.5 µM (inactive)	31.8 µM (inactive)	> 100 µM (inactive)	82.8 µM (inactive)	–
